How the values were obtained:
[1] = tested on: subjects with primary hypercholesterolemia; assay: Safety and tolerability in the same 6-week clinical study (adverse events, laboratory analyses); format: in vivo, human
Procedure: (§1) Objectives: The primary objective of this study was to evaluate the dose-related cholesterol (LDL-C) lowering efficacy of pravastatin 40 mg, 80 mg and 160 mg after 6 weeks of once-daily oral administration in subjects with primary hypercholesterolemia. Secondary objectives were: 1) to evaluate the dose-related changes in serum total cholesterol (TC), high-density lipoprotein cholesterol (HDL-C), and triglycerides (TG) concentrations after 6 weeks of once-daily oral administration of pravastatin 40 mg, 80 mg and 160 mg in subjects with primary hypercholesterolemia; 2) to estimate the dose-related changes in serum LDL-C, TC, HDL-C, and TG concentrations after 2 weeks and 4 weeks of once-daily oral administration of pravastatin 40 mg, 80 mg and 160 mg in subjects with primary hypercholesterolemia; and 3) to ascertain the safety and tolerability of the treatment regimens after 6 weeks of once-daily oral administration of pravastatin 40 mg, 80 mg and 160 mg in subjects with primary hypercholesterolemia.
(§2) Study Design and Methodology: This study was a multicenter, randomized, double-blind placebo-controlled, parallel design trial to determine the LDL-C lowering efficacy of pravastatin over a dose range of 40-160 mg in subjects with primary hypercholesterolemia. After at least 2 weeks of dietary stabilization and discontinuation of any previous lipid-lowering agents for a minimum of 4 weeks, subjects entered into a 4-week single-blind placebo lead-in period. At the end of the placebo lead-in period, subjects with mean serum LDL-C≧160 mg/dL and mean serum TG≦500 mg/dL were randomized (1:1:1:1) to one of four treatment groups: pravastatin 40 mg, pravastatin 80 mg, pravastatin 160 mg or placebo. Blinded treatment was administered once-daily at bedtime for 6 weeks.
Medical history, physical examinations, laboratory analyses, and clinical adverse events (AEs).

[2] = tested on: subjects with primary hypercholesterolemia; assay: Multicenter, double-blind, placebo-controlled, parallel study of lipid (LDL-C, TC, HDL-C, TG) lowering efficacy of once-daily pravastatin 40-160 mg; format: in vivo, human; conditions: for HDL-C % Δ, adjusted percent change from baseline (ANCOVA) / LDL-C (calculated) % Δ, adjusted percent change from baseline (ANCOVA) / TC % Δ, adjusted percent change from baseline (ANCOVA) / TG % Δ, adjusted percent change from baseline (ANCOVA) / increase in HDL-C / mean reduction in TC / mean reduction in TG: Week 6; for mean reduction in LDL-C: 6 weeks of treatment
Procedure: A Multicenter, Double-Blind, Placebo-Controlled, Parallel Study to Determine the LDL-C Lowering Efficacy of Pravastatin Administered Once Daily Over the Dosage Range of 40 mg Through 160 mg.
as §1
Duration of Treatment: 6 weeks
as §2
Number of Subjects: 190 randomized; 189 received randomized study drug, 184 completed the study.
Diagnosis and Main Criteria for Inclusion: Consenting men, or postmenopausal and surgically sterile women, aged 18 through 65 years were eligible to enroll in the study if they met the following criteria: 1) mean serum LDL-C≧160 mg/dL (the LDL-C concentration of the lower qualifying specimen were to be within 15% of the higher qualifying specimen) and 2) mean serum TG≦500 mg/dL obtained from two consecutive qualifying specimens.
Test Product, dose, mode of administration: pravastatin, 40 mg tablets, oral
Primary Efficacy Outcome Measure:
Change from baseline in calculated serum LDL-C at Week 6 of double-blind treatment.
Secondary Efficacy Outcome Measures:
Change from baseline in serum LDL-C at Weeks 2 and 4 of double blind treatment.
Change from baseline in serum TC, HDL-C, and TG at Weeks 2,4, and 6 of double-blind treatment.
Analyses of covariance with terms for treatment and baseline.
A contrast of the dose groups from the analysis of covariance model.

[3] = pravastatin 40 mg once daily, 6 weeks, N=46
[4] = pravastatin 80 mg once daily, 6 weeks, N=49
[5] = pravastatin 160 mg once daily, 6 weeks, N=48
[6] = pravastatin 40 mg once daily, Week 6, N=45
[7] = pravastatin 80 mg once daily, Week 6, N=48
[8] = pravastatin 160 mg once daily, Week 6, N=48

In the case of `CC[C@H](C)C(=O)O[C@H]1C[C@H](O)C=C2C=C[C@H](C)[C@H](CC[C@@H](O)C[C@@H](O)CC(=O)O)[C@H]21` [Pravastatin, Pravastatin sodium], the “subjects with CK elevation >4×ULN” value ([1]; 40 mg pravastatin (one subject)) is reported as 2.2%, the “subjects discontinued due to gastrointestinal events considered possibly related to study drug” value ([1]; 160 mg pravastatin treatment group (two subjects)) is reported as 1.4% and the “tolerability / safety in words” value ([1]; 40, 80 and 160 mg once daily for 6 weeks) is reported as “appears safe and well tolerated”. For the same molecule, the “deaths or serious adverse events in the study” value ([1]; all treatment groups, 6 weeks) was “no deaths or serious adverse events”, the “marked abnormalities (MAs) for ALT and AST” value ([1]; all treatment groups, 6 weeks) was “No marked abnormalities” and the “Number of randomized subjects with ADE (adverse drug experience), n (%)” value (from here on “Number of randomized subjects with ADE … (%)”) [1, 3] was 5 (10.9%). For the same molecule, the “Number of randomized subjects with AE (total), n (%)” value (shortened to “Number … (total), n (%)”) [1, 3] was 19 (43%), the “Number of randomized subjects with Discontinuations, n (%)” value (shortened to “Number … with Discontinuations, n (%)”) [1, 3] was 0 and the “Number of randomized subjects with SAE (serious adverse event)” value (“Number of randomized subjects with SAE” for short) [1, 3] was 0. For the same molecule, the “Number of randomized subjects with ADE … (%)” value [1, 4] was 14 (28.6%), the “Number … (total), n (%)” value [1, 4] was 24 (49.0%) and the “Number … with Discontinuations, n (%)” value [1, 4] was 0. For the same molecule, the “Number of randomized subjects with SAE” value [1, 4] was 0, the “frequency of adverse events by body system” value ([1]; pravastatin 160 mg dose) was “higher frequency of adverse events in the gastrointestinal and respiratory body systems” and the “Number of randomized subjects with ADE … (%)” value [1, 5] was 17 (35.4%). The “Number … (total), n (%)” value [1, 5] was 29 (60.4%), the “Number … with Discontinuations, n (%)” value [1, 5] was 2 (1.4%) and the “Number of randomized subjects with SAE” value [1, 5] was 0. The “absolute reduction in LDL cholesterol as the dose was doubled” value ([2]; dose doubled from 40 mg to 80 mg, and again from 80 mg to 160 mg) was “greater than 6%”, the “additional LDL-C lowering with every doubling of the dose” value ([2]; doses of 40-160 mg once daily, 6 weeks) was 8% and the “LDL-C (calculated) Week 6 Mean” value ([2]; pravastatin 40 mg once daily oral at bedtime, Week 6, N=45) was 139.0 mg/dL. The “HDL-C % Δ, adjusted percent change from baseline (ANCOVA)” value (shortened to “HDL-C % Δ, adjusted percent change”) ([2]; pravastatin 40 mg once daily) was 11.4%, the “LDL-C (calculated) % Δ, adjusted percent change from baseline (ANCOVA)” value ([2]; pravastatin 40 mg once daily) was −28.6% and the “TC % Δ, adjusted percent change from baseline (ANCOVA)” value (from here on “TC % Δ, adjusted percent change”) ([2]; pravastatin 40 mg once daily) was −20.0%. For the same molecule, the “TG % Δ, adjusted percent change from baseline (ANCOVA)” value (from here on “TG % Δ, adjusted percent change”) ([2]; pravastatin 40 mg once daily) was −15.8%, the “HDL-C Week 6 Mean” value [2, 6] was 52.8 mg/dL and the “TC Week 6 Mean” value [2, 6] was 219.8 mg/dL. For the same molecule, the “TG Week 6 Mean” value [2, 6] was 140.9 mg/dL, the “mean reduction in LDL-C” value ([2]; pravastatin 40 mg) was 29% and the “increase in HDL-C” value ([2]; pravastatin 40 mg) was 11.4%. The “mean reduction in TC” value ([2]; pravastatin 40 mg) was 20%, the “mean reduction in TG” value ([2]; pravastatin 40 mg) was 16% and the “LDL-C (calculated) Week 6 Mean” value ([2]; pravastatin 80 mg once daily oral at bedtime, Week 6, N=48) was 124.7 mg/dL. For the same molecule, the “HDL-C % Δ, adjusted percent change” value ([2]; pravastatin 80 mg once daily) was 8.4%, the “LDL-C (calculated) % Δ, adjusted percent change from baseline (ANCOVA)” value ([2]; pravastatin 80 mg once daily) was −36.7% and the “TC % Δ, adjusted percent change” value ([2]; pravastatin 80 mg once daily) was −26.3%. The “TG % Δ, adjusted percent change” value ([2]; pravastatin 80 mg once daily) was −14.2%, the “HDL-C Week 6 Mean” value [2, 7] was 45.0 mg/dL and the “TC Week 6 Mean” value [2, 7] was 201.6 mg/dL. For the same molecule, the “TG Week 6 Mean” value [2, 7] was 158.8 mg/dL, the “mean reduction in LDL-C” value ([2]; pravastatin 80 mg) was 37% and the “increase in HDL-C” value ([2]; pravastatin 80 mg) was 8.4%. For the same molecule, the “mean reduction in TC” value ([2]; pravastatin 80 mg) was 26%, the “mean reduction in TG” value ([2]; pravastatin 80 mg) was 14% and the “LDL-C (calculated) Week 6 Mean” value ([2]; pravastatin 160 mg once daily oral at bedtime, Week 6, N=47) was 108.4 mg/dL. The “HDL-C % Δ, adjusted percent change” value ([2]; pravastatin 160 mg once daily) was 9.6%, the “LDL-C (calculated) % Δ, adjusted percent change from baseline (ANCOVA)” value ([2]; pravastatin 160 mg once daily) was −45.2% and the “TC % Δ, adjusted percent change” value ([2]; pravastatin 160 mg once daily) was −34.2%. The “TG % Δ, adjusted percent change” value ([2]; pravastatin 160 mg once daily) was −26.9%, the “HDL-C Week 6 Mean” value [2, 8] was 46.4 mg/dL and the “TC Week 6 Mean” value [2, 8] was 181.3 mg/dL. The “TG Week 6 Mean” value [2, 8] was 132.0 mg/dL, the “mean reduction in LDL-C” value ([2]; pravastatin 160 mg) was 45% and the “increase in HDL-C” value ([2]; pravastatin 160 mg) was 9.6%. The “mean reduction in TC” value ([2]; pravastatin 160 mg) was 34% and the “mean reduction in TG” value ([2]; pravastatin 160 mg) was 27%.
